pIC50: −log10 of the molar value. Calls of active or inactive are those of the source. No rule for the calls is given here.
Biological target: glucose-6-phosphate dehydrogenase-6-phosphogluconolactonase (Plasmodium falciparum 3D7)
Assay: PfG6PD enzyme inhibitors, direct NADPH readout, dose response, orthogonal assay, biochemical, end-point NADPH detection (AID 540252)
Settings: purified PfG6PD enzyme

| Structure (SMILES) | pIC50 | IC50 |
| --- | --- | --- |
| O=C(NCCCN1CCOCC1)c1sc2cc([N+](=O)[O-])ccc2c1Cl | 4.31 |  |
| O=c1c2ccccc2sn1-c1ccc(Cl)cc1Cl | 4.77 |  |
| Cc1cc(O)c(C(C)C)cc1N=Cc1ccc([N+](=O)[O-])cc1 |  | > 80 µM (inactive) |
| O=S(=O)(NCc1csc(-c2ccccc2)n1)c1ccc(Cl)s1 |  | > 80 µM (inactive) |
| O=C(N/N=C/c1cccc([N+](=O)[O-])c1)C(=O)N1CCCCCC1 |  | > 80 µM (inactive) |
| Cc1cccc(C2(c3cccc(C)c3)CC2C(=O)Nc2ccc([N+](=O)[O-])cc2O)c1 (stereo unspecified) |  | > 80 µM (inactive) |
| CN(C)S(=O)(=O)c1cccc(-n2sc3ccccc3c2=O)c1 | 4.87 |  |
| CC(=NNC(=S)N1CCN(c2ccccn2)CC1)c1nccs1 |  | > 80 µM (inactive) |
| Clc1ccc2nc(-c3ccc4c(c3)OCO4)cn2c1 |  | > 80 µM (inactive) |
| CCOc1cc(CNc2ccc(N3CCCC3)cc2)cc(Cl)c1OC |  | > 80 µM (inactive) |
| C=CCSc1nnc(NC(=O)c2ccc(Cl)nc2)s1 |  | > 80 µM (inactive) |
| O=S(c1ccccc1O)S(=O)c1ccccc1O (stereo unspecified) |  | > 80 µM (inactive) |
| N#Cc1ccc(N=c2ssnc2Cl)cc1 | 4.31 |  |
| Cc1nc2c(o1)C(=O)c1ccccc1C2=Nc1ccccc1 |  | > 80 µM (inactive) |
| O=S(=O)(Nc1c(O)ccc2ccccc12)c1ccccc1 |  | > 80 µM (inactive) |
| Cc1cc(C)c[n+](C2=C([O-])c3ccccc3C(=O)/C2=N\S(=O)(=O)c2cccs2)c1 |  | > 80 µM (inactive) |
| c1nc(SSc2ncnc3nc[nH]c23)c2[nH]cnc2n1 | 4.54 |  |
| COCCn1nnnc1C(c1cc2cc(OC)c(OC)cc2[nH]c1=O)N1CCN(c2ccc(O)cc2)CC1 (stereo unspecified) |  | > 80 µM (inactive) |
| O=C1C(c2cc(=O)c3ccccc3[nH]2)=C(O)c2ccccc21 |  | > 80 µM (inactive) |
| CN1CCc2cccc3c2[C@@H]1Cc1ccc(O)c(O)c1-3 |  | > 80 µM (inactive) |
| CCC(=O)OCCNc1cc(Sc2nc3ccccc3s2)c2nonc2c1[N+](=O)[O-] |  | > 80 µM (inactive) |
| CC(C)c1nnc(NC(=O)c2cc3ccccc3o2)s1 |  | > 80 µM (inactive) |
| CCS(=O)(=O)N1CCN(c2ccc([N+](=O)[O-])c(NC(C)c3ccccc3)c2)CC1 (stereo unspecified) |  | > 80 µM (inactive) |
| CN(C)C=Nc1ccc2nc3c(cc2c1)[nH]c1ccccc13 |  | > 80 µM (inactive) |
| NS(=O)(=O)c1ccc(N/N=C/c2ccc(O)c(O)c2O)c([N+](=O)[O-])c1 | 4.44 |  |
| COc1cccc(-c2c(C(=O)N/N=C/c3ccc(C)s3)nnn2-c2nonc2N)c1 |  | > 80 µM (inactive) |

| Structure (SMILES) | pIC50 | IC50 |
| --- | --- | --- |
| Oc1ccc(NCc2ccccc2OCc2ccccc2)cc1 |  | > 80 µM (inactive) |
| COC1=C(Br)C(=O)c2nc(C)ccc2C1=O |  | > 80 µM (inactive) |
| COc1ccc2nc3cc(Cl)ccc3c(Nc3ccc(O)c(CN4CCN(C)CC4)c3)c2c1 |  | > 80 µM (inactive) |
| C/C(Cn1nnc([N+](=O)[O-])n1)=N\NC(=O)c1ccc(O)cc1 |  | > 80 µM (inactive) |
| COC(=O)CCC(=O)Nc1sc(Cc2ccccc2)c(C)c1C(N)=O |  | > 80 µM (inactive) |
| Nc1[nH]c(=O)[nH]c(=O)c1N=Cc1ccccc1 |  | > 80 µM (inactive) |
| Cc1ccc(S(=O)(=O)N(C)C)cc1NC(=O)CSc1nc2ncc(Cl)cc2[nH]1 |  | > 80 µM (inactive) |
| O=C1C=CC(=O)N1c1ccc(-c2nc3ccccc3o2)cc1 |  | > 80 µM (inactive) |
| COc1ccc(CN(C)S(=O)(=O)c2nnc(NC(=O)c3cccc(C)c3)s2)cc1OC |  | > 80 µM (inactive) |
| COc1ccc(N2CSC3=C(C#N)C(c4cc(OC)c(OC)cc4OC)CC(=O)N3C2)c(OC)c1 (stereo unspecified) |  | > 80 µM (inactive) |
| N#Cc1c(C#N)c(SSc2c(C#N)c(C#N)c(N)n2-c2ccccc2)n(-c2ccccc2)c1N |  | > 80 µM (inactive) |
| C[C@H](NC(N)=O)C(=O)Nc1ccc(N2CCOCC2)c(S(=O)(=O)Nc2ccc(Cl)cc2)c1 |  | > 80 µM (inactive) |
| CN(C)c1ncc(C2=C(Cl)C(=O)C(N3CCCC3)=C(Cl)C2=O)s1 |  | > 80 µM (inactive) |
| O=C1C=CC(=O)N1CCNc1ncc(C(F)(F)F)cc1Cl | 4.18 |  |
| CN(C)c1ccc(Cc2cc3c(O)ccc(O)c3cc(Cc3ccc(N(C)C)cc3)c2=O)cc1 |  | > 80 µM (inactive) |
| Cc1ccc(-c2csc(NC(=O)c3ccc(Br)cc3)c2C(=O)O)cc1 |  | > 80 µM (inactive) |
| CCOC(=O)c1c(OCC)[nH]c2c1cc(O)c1ccccc12 |  | > 80 µM (inactive) |
| CN1CCc2cccc3c2[C@H]1Cc1ccc(O)c(O)c1-3 |  | > 80 µM (inactive) |
| Cn1c(-c2sccc2OCc2cccc(C(F)(F)F)c2)n[nH]c1=S |  | > 80 µM (inactive) |
| CCCn1cc(S(=O)(=O)CC(=O)Nc2ccc(OC)cc2OC)c2ccccc21 |  | > 80 µM (inactive) |
| O=[N+]([O-])c1ccc(-[n+]2ccc3ccccc3c2)c([N+](=O)[O-])c1 |  | > 80 µM (inactive) |
| Fc1cccc(Cl)c1CNc1ccc(N2CCCC2)cc1 |  | > 80 µM (inactive) |
| C#CCCc1cscc1/C=[N+](\[O-])c1ccc(C(=O)OCC)cc1 |  | > 80 µM (inactive) |
| COc1ccc(C(=O)Nc2sc3c(c2C(=O)O)CC(C)(C)OC3)cc1 |  | > 80 µM (inactive) |
| CCOC(=O)c1c(C2COc3ccccc3O2)csc1NC(=O)c1ccco1 (stereo unspecified) |  | > 80 µM (inactive) |

From PubChem BioAssay AID540252 (Sanford-Burnham Center for Chemical Genomics, 2011)
